Assay results published in patent US7214668B2, “Phosphonic acid based prodrugs of PMEA and its analogues” (Metabasis Therapeutics, Inc., priority 2002, dated 2007).
“And” between values parts separate entries of the source, which are not always exact repeats. Equal entries are not always repeated.

How the values were obtained:
[1] = Plasma and urine PMEA following oral Compound 4 and bis POM PMEA in rats; format: in vivo, rat; conditions: 30 mg/kg PMEA equivalents p.o.
Protocol: PMEA levels (0–12 h) were quantified in plasma by fluorescence HPLC following chloroacetaldehyde derivatization. PMEA levels in urine were quantified 48 hours after treatment.
Plasma drug levels: PMEA was determined in plasma by a modification of the procedure described in the literature (Shaw J P, Louie M S, Krishnamurthy V V, Arimilli M N, Jones R J, Bidgood A M, Lee W A, & Cundy K C, Drug Metabolism and Disposition, 25:362–366 (1997)). Plasma (100 μL) samples were extracted with 2 volumes of 0.1% TFA in acetonitrile. Following centrifugation to remove the precipitate, the supernatant was evaporated to dryness. The dried plasma was reconstituted with 200 μL of the derivatization cocktail consisting of 0.34% chloroacetaldehyde in 100 mM sodium acetate pH 4.5 and incubated at 95° C. for 40 min. The samples were evaporated to dryness and reconstituted with mobile phase for analysis by HPLC. The derivatized PMEA was analyzed by an HPLC system (Hewlett Packard 1090) consisting of a Beckman Ultrasphere ODS 4.6×150 mm (5 μm) column developed with a 20-min gradient of 0–30% acetonitrile in 20 mM potassium phosphate pH 6.2. Fluorescence was monitored at an excitation and emission wavelength of 240 and 420 nm, respectively. The column temperature was 40° C. and the flow rate was 1.5 mL/min. The derivatized PMEA was detected and quantified by comparison to an authentic standard prepared in plasma and eluted at approximately 6 minutes. The limit of quantitation of PMEA, was 0.25 μg/mL.
Urinary excretion studies: The percent excretion of PMEA in urine was assessed by a modification of a previously described procedure (Russell J W, Marrero D, Whiterock V J, & Klunk L J, J Chromatog, 572:321–326 (1991)). Aliquots (0.25–0.5 mL) of urine samples and spiked standards were incubated with an equal volume of 17% (v/v) of 50% chloroacetaldehyde in 100 mM sodium acetate pH 4.5 at 50° C. for 4 hrs. Following centrifugation, the supernatant was analyzed by the HPLC method described in the previous section.

[2] = system: freshly isolated rat hepatocytes; conditions: 250 μM prodrug
Protocol: PMEA prodrugs were tested.
Hepatocytes were prepared from fed Sprague-Dawley rats (250–300 g) according to the procedure of Berry and Friend (Berry, M. N. Friend, D. S., J. Cell Biol. 43:506–520 (1969)) as modified by Groen (Groen, A. K. et al., Eur. J. Biochem 122:87–93 (1982)). Hepatocytes (60 mg/ml wet weight, >85% trypan blue viability) were incubated in 2 ml of krebs-bicarbonate buffer containing 20 mM glucose, and 1 mg/ml BSA for 4 hours in the presence of 250 μM PMEA prodrugs (from 25 mM stock solutions of prodrugs in methanol). At appropriate time points throughout the incubation (0, 1, 2, 4 hours), 400-μl aliquots of the cell suspension were taken and centrifuged through a silicon/mineral oil layer into 10% perchloric acid to extract intracellular nucleotides. The acidic cell extracts were neutralized with 0.3 volumes of 3M KOH/3M […] before evaluating PMEApp levels by ion exchange HPLC (Hewlett Packard 1050) using a Whatman Partisphere SAX (5 μm, 4.6×125 mm) column. Samples were loaded onto the column in 0.3M-ammonium phosphate buffer pH 3.5 and eluted from the column with a gradient to 0.8 M ammonium phosphate pH 3.5.

[3] = Tissue distribution of PMEA equivalents after oral tritiated Compound 4 and bis POM PMEA in rats
Protocol: Total tritium counts were analyzed in solubilized samples of liver organ, kidney, plasma, urine, red blood cells, small intestine, as well as small intestine contents and feces obtained at various time points over 24 hours. Liver organ specificity was assessed by comparison of the temporal profiles of total tritium in liver organ versus kidney, small intestine, plasma, and red blood cells. Metabolite profiles in perchloric acid extracts of liver organ, kidney, small intestine, feces and urine were analyzed by HPLC.

Nc1ncnc2c1ncn2CCOCP1(=O)OCCC(c2cccc(Cl)c2)O1 (racemic) [Compound 4]
AUC0-12h of PMEA in plasma ([1]; fasted rats): 3.5 nmol·h/mL
Fold lower plasma PMEA AUC0-12h than following bis POM PMEA ([1]; rats): 6 fold
Fold lower plasma PMEA Cmax than following bis POM PMEA ([1]; rats): 13 fold
Fold lower urinary levels of PMEA than following bis POM PMEA ([1]; rats): 5 fold
Urinary levels of PMEA ([1]; rats, urine 48 hours after treatment): 4.1 % dose
Rat Hepatocytes, PMEApp formation, 250 μM, AUC 0–4 h [2]: 109.3 nmol·h/g
Compound 4/bisPOM PMEA (fold difference), Kidney ([3]; 30 mg/kg PMEA equivalents p.o.): 0.26 fold
Compound 4/bisPOM PMEA (fold difference), Liver organ ([3]; 30 mg/kg PMEA equivalents p.o.): 3.1 fold and 3.11 fold
Compound 4/bisPOM PMEA (fold difference), Small Intestine ([3]; 30 mg/kg PMEA equivalents p.o.): 0.04 fold
Fold decrease of exposure of PMEA equivalents in kidney relative to bis POM PMEA ([3]; 30 mg/kg PMEA equivalents p.o.): 3.8 fold
Fold decrease of exposure of PMEA equivalents in small intestine relative to bis POM PMEA ([3]; 30 mg/kg PMEA equivalents p.o.): 25 fold
Dose found as intact prodrug in feces ([3]; after 24 hours, p.o.): ~60%
